Where a name gives a salt, the structure may show the parent alone.
Assay: Stability on storage: HPLC assay for API, impurities and degradants (Examples 1-4)
Assay type: physicochemical
Details: period of 4 weeks, 2-8° C. to 60° C.
Method: (§1) The injection volume was 10 μL.
as §1

With `Cc1ccc(N(CC2=NCCN2)c2cccc(O)c2)cc1` [phentolamine mesylate] the stability in water was “degrades rapidly”.
